Assay type in all cases: cell-based
One test relates to A431 (epidermoid). Put plainly: MTT cytotoxicity assay, A431. As to conditions: Homo sapiens, A-431, 96 h, read-out: IC50 (nM) A431. The protocol:
(§1) The cytotoxicity potential of the compounds of the invention 16c-h was compared with the comparative compounds 16a, 16b and GWL-78 in a number of tumour cell lines and the non-cancer cell line WI38 after 96 hours exposure using the MTT (3-(4,5-Dimethylthiazol-2-yl)-2,5-diphenyltetrazolium bromide) colorimetric assay, as described below.
(§2) A panel of several types of human cancer cell lines including epidermoid (A431), lung (A549), ovarian (A2780) and breast (MCF7 and MDAMB-231), as well as the non-tumour cell line WI38, were used to determine the cytotoxicity of the compounds. The cells were grown in normal conditions at 37° C. under a 5% CO2 humidified atmosphere, either in Dulbecco's Modified Eagle Medium or Modified Eagle Medium (depending on the cell line), supplemented with 10% fetal bovine serum (Biosera, UK), 1% L-glutamine, 1% non-essential amino acids and 0.05% hydrocortisone (Gibco, Invitrogen, USA). Cells were then seeded into 96-well plates in a total volume of 160 μl, and allowed to reach a 30-40% degree of confluence before starting the experiment. The ligands were dissolved in sterilized ultrapure water at a maximum concentration of 100 μM, and serial decimal dilutions prepared. These were added to the cells in a volume of 40 μl. After 96 hours of continuous exposure to each ligand, the cytotoxicity was determined by the MTT (3-(4,5-Dimethylthiazol-2-yl)-2,5-diphenyltetrazolium bromide) (Lancaster Synthesis Ltd, UK) colorimetric assay (Skehan P, S. R., et al., Journal of the National Cancer Institute 1990, 82, 1107). Absorbance was quantified by spectrophotometry at A=570 nm (ELx808, Bio-Tek Instruments, Inc., USA). IC50 values were calculated by a dose-response analysis using the Origin 6.0™ software.
In general terms: Tetrazolium dyes change colour on reduction, which living cells bring about.

A further test has as its system A549 (lung). As to the kind of experiment: MTT cytotoxicity assay, A549. The settings on record: Homo sapiens, A549, 96 h, read-out: IC50 (nM) A549. The protocol:
as §1, §2

For another test, the system named is A2780 (ovarian). As to the kind of experiment: MTT cytotoxicity assay, A2780. As to conditions: Homo sapiens, A2780, 96 h, read-out: IC50 (nM) A2780. The protocol:
as §1, §2

A further test relates to MCF7 (breast). Put plainly: MTT cytotoxicity assay, MCF7. The settings on record: Homo sapiens, MCF7, 96 h, read-out: IC50 (nM) MCF7. The protocol: as §1, §2
The test system of the next test is MDAMB-231 (breast). As to the kind of experiment: MTT cytotoxicity assay, MDAMB-231. The settings on record: Homo sapiens, MDA-MB-231, 96 h, read-out: IC50 (nM) MDAMB-231. The protocol: as §1, §2
The next test relates to Mia Paca 2. Put plainly: MTT cytotoxicity assay, Mia Paca 2. The settings on record: Homo sapiens, MIA PaCa-2, 96 h, read-out: IC50 (nM) Mia Paca 2. The protocol:
as §1, §2

For a further test, the system named is WI38. Put plainly: MTT cytotoxicity assay, non-tumour cell line WI38. The settings on record: Homo sapiens, WI-38, 96 h, read-out: IC50 (nM) WI38. The protocol:
as §1, §2

The next test concerns primary CLL cells. As to the kind of experiment: Annexin V/propidium iodide flow cytometry assay in primary CLL cells. As to conditions: CLL cell. The protocol: The cytotoxicity potential of the compounds of the invention 16c-h was also compared with the comparative compounds 16a, 16b and GWL-78 in a primary CLL cell lines using the Annexin V assay (van Engeland, M, et al., Cytometry 1998, 31, 1-9), as described below.
Freshly isolated peripheral blood CLL cells (1×10^8 mL^−1) were cultured in RPMI medium (Invitrogen, Paisley, U.K.) supplemented with 100 U/mL penicillin, […] streptomycin, and 10% fetal calf serum. The cells were incubated at 37° C. in a humidified 5% CO2 atmosphere in the presence of each compound. All compounds were dissolved in DMSO and were evaluated in serial dilutions against the primary CLL cells. In addition, control cultures were carried out to which no drug was added. The cytotoxic effects of the compounds were quantified using an annexin V/propidium iodide flow cytometry assay (Bender Medsystems, Vienna, Austria). All assays were performed in duplicate, and LD50 values were calculated from sigmoidal dose-response curves using the Prism 6.0 software (Graphpad Software Inc., San Diego, Calif.). The sigmoidal dose-response curves were derived by plotting log [compound concentration] against the percentage apoptosis induced by that concentration. A wide range of concentrations were used to establish the biologically active range for each individual compound.
For orientation: Flow cytometry measures light scatter and fluorescence of single cells or particles in a stream.

pIC50: −log10 of the molar value.

A word on the IC50: it is the point on the concentration scale where inhibition reaches its midpoint. Usually pIC50 stands for −log10 of the IC50, conventionally taken in molar units. A higher pIC50 goes with a low IC50. Take `COC(=O)c1cc(-c2ccc(NC(=O)CCCOc3cc4c(cc3OC)C(=O)N3CCC[C@H]3C=N4)cc2)cn1C` [Compound 16a, (S)-methyl 4-(4-(4-(7-methoxy-5-oxo-2,3,5,11a-tetrahydro-1H-pyrrolo[2,1-c][1,4]benzodiazepine-8-yloxy)butanamido)phenyl)-1-methyl-1H-pyrrole-2-carboxylate]: the IC50 in the test on A431 (epidermoid) was found to be 2.31 nM; in the test on A549 (lung), 7.5 nM; in the test on A2780 (ovarian) it was 1.87 nM; in the test with MCF7 (breast), 1.91 nM; in the test with MDAMB-231 (breast), 2.11 nM; with Mia Paca 2 it was 1.2 nM. The half-inhibitory concentration (IC50) with WI38 is 160 nM. The compound also showed a pIC50 in the test on primary CLL cells of 8.21.
On to `COC(=O)c1cc(-c2ccc(NC(=O)c3cc(-c4ccc(NC(=O)CCCOc5cc6c(cc5OC)C(=O)N5CCC[C@H]5C=N6)cc4)cn3C)cc2)cn1C` [Compound 16b, (S)-methyl 4-(4-(4-(4-(4-(7-methoxy-5-oxo-2,3,5,11a-tetrahydro-1H-pyrrolo[2,1-c][1,4]benzodiazepine-8-yloxy)butanamido)phenyl)-1-methyl-1H-pyrrole-2-carboxamido)phenyl)-1-methyl-1H-pyrrole-2-carboxylate], for which the IC50 in the test with A431 (epidermoid) came to 2.91 nM; in the test on A549 (lung) it was 0.54 nM; with A2780 (ovarian) it was 0.56 nM; in the test on MCF7 (breast), 0.9 nM; in the test on MDAMB-231 (breast), 0.46 nM; in the test on Mia Paca 2, 0.35 nM. Besides, the IC50 in the test on WI38 was determined as 159 nM. Also, the negative logarithm of the IC50 (pIC50) in the test on primary CLL cells was 8.33.
Consider `COC(=O)c1cc(NC(=O)c2cc(-c3ccc(NC(=O)CCCOc4cc5c(cc4OC)C(=O)N4CCC[C@H]4C=N5)cc3)cn2C)cn1C` [Compound 16c, (S)-methyl 4-(4-(4-(4-(7-methoxy-5-oxo-2,3,5,11a-tetrahydro-1H-pyrrolo[2,1-c][1,4]benzodiazepine-8-yloxy)butanamido)phenyl)-1-methyl-1H-pyrrole-2-carboxamido)-1-methyl-1H-pyrrole-2-carboxylate], for which the IC50 in the test with A431 (epidermoid) came out at 4.6 nM; in the test on A549 (lung) it was 0.019 nM; in the test on A2780 (ovarian), 0.96 nM; in the test with MCF7 (breast), 1.7 nM; in the test on MDAMB-231 (breast), 2.7 nM; in the test with Mia Paca 2 it was 0.34 nM. In the test on WI38, the concentration for half-maximal inhibition (IC50) was found to be 426 nM. Moreover, the pIC50 in the test with primary CLL cells was 8.68.
Take `CCOC(=O)c1nc(NC(=O)c2cc(-c3ccc(NC(=O)CCCOc4cc5c(cc4OC)C(=O)N4CCC[C@H]4C=N5)cc3)cn2C)cn1C` [Compound 16d, (S)-ethyl 4-(4-(4-(4-(7-methoxy-5-oxo-2,3,5,11a-tetrahydro-1H-pyrrolo[2,1-c][1,4]benzodiazepine-8-yloxy)butanamido)phenyl)-1-methyl-1H-pyrrole-2-carboxamido)-1-methyl-1H-imidazole-2-carboxylate]: the IC50 in the test with A431 (epidermoid) came to 0.19 nM; in the test with A549 (lung) it was 0.47 nM; with A2780 (ovarian) it was 0.15 nM; in the test on MCF7 (breast) it was 0.37 nM; in the test with MDAMB-231 (breast), 0.45 nM; in the test on Mia Paca 2, 0.11 nM. For the same compound, in the test on WI38, the half-maximal inhibitory concentration (IC50) was found to be 1240 nM. The same compound had a pIC50 in the test with primary CLL cells of 8.52.
Consider `COC(=O)c1cc(NC(=O)c2nc(NC(=O)c3cc(-c4ccc(NC(=O)CCCOc5cc6c(cc5OC)C(=O)N5CCC[C@H]5C=N6)cc4)cn3C)cn2C)cn1C` [Compound 16h, (S)-methyl 4-(4-(4-(4-(4-(7-methoxy-5-oxo-2,3,5,11a-tetrahydro-1H-pyrrolo[2,1-c][1,4]benzodiazepine-8-yloxy)butanamido)phenyl)-1-methyl-1H-pyrrole-2-carboxamido)-1-methyl-1H-imidazole-2-carboxamido)-1-methyl-1H-pyrrole-2-carboxylate], for which the IC50 in the test on A431 (epidermoid) was determined as 0.306 nM; in the test on A549 (lung), 0.45 nM; in the test on MCF7 (breast) it was 0.075 nM; with MDAMB-231 (breast), 0.015 nM; with Mia Paca 2, 0.25 nM; in the test with WI38 it was 65.6 nM. This compound also gave a pIC50 with primary CLL cells of 10.43.

These data come from US9376440B2, “Pyrrolobenzodiazepines as antiproliferative agents” (MEDIMMUNE LIMITED, priority 2012, dated 2016).
